Experimental data taken from PubChem BioAssay (NCI).
Where “and” joins values, the source holds several entries; their conditions need not be identical. Equal values may be shown once.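 Assay format: 96-well plates, 48-hour exposure. GI50: concentration for 50% inhibition of growth. The concentration for full growth arrest is given as TGI.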

Experiments:
Test in all cases: NCI tumour cell line growth inhibition, 48 h
[1] = tested on: SF-539 CNS
[2] = tested on: NCI-H522 lung
[3] = tested on: NCI-H23 lung
[4] = tested on: SK-MEL-28 melanoma
[5] = tested on: SK-OV-3 ovarian
[6] = tested on: SK-MEL-2 melanoma
[7] = tested on: A549 NSCLC
[8] = tested on: HOP-62 NSCLC
[9] = tested on: COLO 205 colon
[10] = tested on: SN12C renal

| SMILES | TGI [1] [µM] | TGI [2] | TGI [3] [µM] | TGI [4] [µM] | TGI [5] [µM] | TGI [6] [µM] | TGI [7] [µM] | TGI [8] [µM] | TGI [9] | TGI [10] [µM] | GI50 [1] [µM] | GI50 [2] [µM] | GI50 [3] [µM] | GI50 [4] [µM] | GI50 [5] [µM] | GI50 [7] [µM] | GI50 [8] [µM] | GI50 [9] [µM] | GI50 [10] [µM] | GI50 [6] [µM] |
| --- | --- | --- | --- | --- | --- | --- | --- | --- | --- | --- | --- | --- | --- | --- | --- | --- | --- | --- | --- | --- |
| CCCN(CCCCC(NC(C)=O)C(=O)NCc1ccccc1)C(=O)N(CCCl)N=O (centres undefined) | 41.1 | > 100 µM | 98.5 | > 100 | > 100 | > 100 | > 100 | 78.3 | > 100 µM | > 100 | – | – | – | – | – | – | – | – | – | – |
| Cc1ccc(N=NC(C(=O)c2ccccc2)C(=O)c2ccccc2)cc1 | 97.3 | 44.3 µM | 63.2 | > 100 | 96 | 55.4 | > 100 | 71.9 | 52.4 µM | 55.2 | – | – | – | – | – | – | – | – | – | – |
| COc1cc([N+](=O)[O-])ccc1NC(=O)C(F)(F)F | > 100 | > 100 µM | > 100 | > 100 | > 100 | > 100 | > 100 | > 100 | > 100 µM | > 100 | – | – | – | – | – | – | – | – | – | – |
| N#CCCN(c1ccc(/C=C2\N=C(c3ccc(Cl)cc3)OC2=O)cc1)S(=O)(=O)c1ccccc1 | > 100 | > 100 µM | > 100 | > 100 | > 100 | > 100 | > 100 | > 100 | > 100 µM | > 100 | – | – | – | – | – | – | – | – | – | – |
| COc1ccc(-c2cc3c(nn2)-c2ccccc2C3=O)cc1 | > 100 | > 100 µM | > 100 | > 100 | > 100 | > 10 | > 100 | > 100 | > 100 µM | > 100 | > 100 | > 100 | > 100 | > 100 | > 100 | > 100 | > 100 | > 100 | > 100 | – |
| CC(=O)NC(CCCN)C(=O)NCc1ccccc1 (centres undefined) | > 100 | > 100 µM | > 100 | > 100 | > 100 | > 100 | > 100 | > 100 | > 100 µM | > 100 | – | – | – | – | – | – | – | – | – | – |
| COc1cc(Cc2cc(OC)c(OC)c(OC)c2)ccc1O | 56.2 | 39.5 µM | > 100 | > 100 | > 100 | 64.5 | > 100 | > 100 | > 100 µM | > 100 | – | – | – | – | – | – | – | – | – | – |
| COc1cc(C2c3cc4c(cc3[C@H](OCCN(C)C)[C@@H]3COC(=O)C23)OCO4)cc(OC)c1O (some centres undefined) | 0.449 | 2.35 µM | 1.3 | 4.51 | 1.31 | 2.44 | 1.34 | 0.366 | 9.05 µM | 0.598 | – | – | – | – | – | – | – | – | – | – |
| O=C(O)C(Sc1ccc(Cl)cc1)Sc1ccc(Cl)cc1 | > 100 | > 100 µM | > 100 | > 100 | > 100 | 69.1 | > 100 | > 100 | 59 µM | > 100 | – | – | – | – | – | – | – | – | – | – |
| COC(=O)c1cc2c(c(C(=O)OC)c1O)C(=O)C=CC2=O | > 56.1 | 9.1 µM and > 26.9 µM | > 31.6 | > 58.1 | > 100 | > 100 | > 58.3 | > 93.4 | > 9.1 µM and 98.8 µM | > 56.3 | > 9.1 | 3.01 | > 9.1 | > 9.1 | > 9.1 | > 9.1 | > 9.1 | > 9.1 | > 9.1 | > 100 |
| COc1ccc2cc(C(=O)/C=C/c3cccc(OC)c3OC)ccc2c1 | 26.1 | 29.6 µM | 25.3 | 44.5 | 45.9 | 40.3 | 24.8 | 34.5 | 78.5 µM | 14 | 11.1 | 10.2 | 11.2 | 19.4 | 23.7 | 7.11 | 17.4 | 20.4 | 3.83 | 21.3 |
| CCCCC/C=C/C/C=C/CCCCCCCC1=NC(C)(C)CN1C(C)C | 3.3 | 3.17 µM | 3.24 | 3.07 | 12.6 | 3.35 | 3.2 | 3.17 | 2.79 µM | 4.08 | 1.82 | 1.72 | 1.49 | 1.7 | 3.07 | 1.77 | 1.58 | 1.47 | 1.71 | 1.85 |
| Cc1ccc(C(=O)/C=C/c2ccccc2O)c(C)c1 | > 100 | > 100 µM | > 100 | > 100 | > 100 | > 100 | > 100 | > 100 | > 100 µM | > 100 | – | – | – | – | – | – | – | – | – | – |
| COc1cc(Cn2c(-c3ccccc3)cc3c2-c2oncc2CC3)cc(OC)c1OC | 10.3 | 5.99 µM | > 100 | 45.9 | > 100 | > 100 | > 100 | > 100 | 3.13 µM | > 100 | 0.735 | 0.294 | 2.57 | 1.14 | 1.53 | 1.15 | 2.37 | 0.696 | 5.84 | 18.6 |
| Cc1ccc(NC(=O)C2C(=O)N(c3ccc(C)c(C)c3)C(=O)/C2=N/O)cc1C (centres undefined) | > 100 | > 100 µM | > 100 | > 100 | > 100 | > 100 | > 100 | > 100 | > 100 µM | > 100 | – | – | – | – | – | – | – | – | – | – |
| COC(=O)C(=O)C(C(=O)C=C(C)C)C(=O)C(=O)Nc1ccc(Cl)cc1C (centres undefined) | > 100 | > 100 µM | > 100 | > 100 | > 100 | > 100 | > 100 | > 100 | > 100 µM | > 100 | – | – | – | – | – | – | – | – | – | – |
| CN1C(NC(=O)c2ccc(Cl)nc2)=NS(=O)(=O)c2cc(Cl)ccc21 | > 100 | > 100 µM | > 100 | > 100 | > 100 | > 100 | > 100 | > 100 | > 100 µM | > 100 | > 100 | > 100 | > 100 | > 100 | > 100 | > 100 | > 100 | > 100 | > 100 | > 100 |
